From US9855245B2, “Methods for improving lipid profiles using atrasentan” (AbbVie Inc., priority 2013, dated 2018)
Counter-ions that a name gives are not always drawn. Like-named read-outs stand apart in the source and are kept apart here. Non-standard residues stand in square brackets, D forms with d. Residues, ends and D or L forms follow the SMILES beside them.

Legend:
[1] = cited from earlier work
[2] = system: subjects with type 2 diabetes and nephropathy; assay: Example 3: Phase 2b randomized, double-blind, placebo-controlled 8-week study with thoracic bioimpedance; type: in vivo, human; details: dose of 0.5 mg
Source text: This study also included measurement of thoracic bioimpedance to assess the potential for thoracic fluid retention with atrasentan.
An equal percentage of subjects in all 3 groups experienced an adverse event (81.3%). […] (Table 17).
A mean decrease of 4 ohms in thoracic bioimpedance, as measured by the ZOE® Fluid Status Monitor, is considered clinically indicative of thoracic fluid overload. Mean thoracic bioimpedance fluctuated in all treatment groups over time, with greater mean changes in the 2 atrasentan groups than in the placebo group.

ob-ZSF1 rats = assay: Example 5: preclinical study of hypotensive synergy, mean arterial pressure; type: in vivo, rat; details: 10 mg/kg/day for 12 weeks
Source text: In the example, a preclinical animal model is used to evaluate whether atrasentan and an ARB cause a synergistic hypotensive effect.

For `CC(C)C[C@@H]1NC(=O)[C@@H](C(C)C)NC(=O)[C@@H]2CCCN2C(=O)[C@@H](CC(=O)O)NC(=O)[C@@H](Cc2c[nH]c3ccccc23)NC1=O` [BQ-123] (cyclo(L[dW][dD]P[dV])), the “mean arterial pressure, mean area under curve +/− SEM” value ([1]; BQ-123 alone) is listed as −2.3 mmHg and the “mean arterial pressure, mean area under curve +/− SEM” value ([1]; BQ-123 plus enalapril) is listed as −5.1 mmHg.

For `CCCCN(CCCC)C(=O)CN1C[C@H](c2ccc3c(c2)OCO3)[C@@H](C(=O)O)[C@@H]1c1ccc(OC)cc1` [atrasentan HCl], the “reduction in UACR” value [2] was “not demonstrated to result in a statistically significant reduction in UACR”.

In the case of `CCCCc1nc(Cl)c(CO)n1Cc1ccc(-c2ccccc2-c2nn[nH]n2)cc1` [losartan, reference compound], the “mean arterial pressure (MAP)” value (ob-ZSF1 rats) is reported as “significant decrease”.
